This passage reports TGI and GI50 results from PubChem BioAssay (NCI).

“And” between values parts separate entries of the source, which are not always exact repeats. Equal values may be shown once.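 The compound was tested at five concentrations on cells cultured in 96-well plates, with a 48-hour exposure period. Abbreviation: GI50, concentration required for 50% inhibition of growth. TGI denotes the concentration required for complete inhibition of growth.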 Where a SMILES comes first, the peptide text is derived from it. The star is where a group is joined. Cbz = O=C(OCc1ccccc1)*; Boc = CC(C)(C)OC(=O)*; OBn = c1ccc(CO*)cc1

Experiment in all cases: NCI anticancer screen, dose series, 48 h
The test system of assay [1] is CAKI-1 renal.
For assay [2], the system named is MOLT-4 leukemia.
The test system of assay [3] is T-47D breast.
Assay [4] concerns MDA-MB-435.
In assay [5] the test system is SK-MEL-5 melanoma.
Assay [6] has as its system NCI-H23 lung.
Assay [7] has as its system RXF 393 renal.
Assay [8] has as its system OVCAR-3 ovarian.
Assay [9] concerns U251 CNS.
The subject of assay [10] is SF-539 CNS.

On to `CCc1ccc2[nH]c(O)c(-c3[nH]c4ccccc4c3N=O)c2c1`, for which the TGI in [1] was 19.8 µM; in [2] it was above 100 µM; in assay [3] it was 32.8 µM; in [4] it was 21.9 µM; in assay [5] it was 13.6 µM; in assay [6], 19 µM. The TGI in [7] turned out to be 11.2 µM; in [8] it was 14.4 µM; in assay [9], 21.5 µM.
Consider `O=C1C(Br)=CC2(C=C1Br)CCNC1=C2C(=O)c2cccnc2C1=O`, for which the TGI in [10] was determined as 20.9 µM; in assay [1], 32.3 µM; in assay [2], 24.9 µM; in assay [4], 3.33 µM; in assay [5], 12.8 µM; in [6], 18.2 µM. The values for the TGI in assay [7], in [8] and in [9] were 21.3 µM, 17.9 µM and 35.6 µM, respectively.
As to `CCOC(=O)/C=C(\C(=O)OCC)n1ccc(N)nc1=O`, the TGI in [10], in [1], in [2], in assay [3], in [4] and in [5] was above 100 µM in each case. Besides, the TGI in assay [6], in [8] and in assay [9] was above 100 µM in each case.
Take `O=C(CCCCCCCCC(=O)N1C(=O)CC(=O)N(c2cccc(Cl)c2)C1=S)N1C(=O)CC(=O)N(c2cccc(Cl)c2)C1=S`: the TGI was above 100 µM in assay [1]; 70.6 µM in assay [2]; above 100 µM in assay [3]; above 100 µM in assay [4]; above 100 µM in assay [5]; above 100 µM in [6]. Further, the results for the TGI in assay [7], in assay [8] and in assay [9] were above 100 µM, 65 µM and above 100 µM, respectively.
`COc1cc(/C=C2\N=C(c3ccccc3)N(c3nc4c(OC)ccc(OC)c4s3)C2=O)cc(OC)c1OC`: the TGI in assay [1], in assay [2], in assay [3], in assay [4], in assay [5] and in [6] was above 100 µM throughout. Besides, the TGI in assay [7], in [8] and in assay [9] was above 100 µM throughout.
On to `O=c1[nH]nc(-c2ccccc2)n1/N=C/c1c(O)ccc2ccccc12`, for which the TGI in assay [10] is above 100 µM; in assay [2], above 100 µM; in assay [4] it was above 100 µM; in assay [5], above 100 µM; in [6] it was above 100 µM; in [7], 85.2 µM. The results for the TGI in assay [8] and in [9] were 43.2 µM and 86.4 µM, respectively.
As to `CC(=O)OC(OC(C)=O)n1cc(C=O)c2ccccc21`, the TGI in assay [1], in assay [2], in assay [3], in assay [5], in [6] and in [8] was above 100 µM in each case. For the same molecule, the TGI in [9] was above 100 µM.
As for `O=C1NC2(CCCCC2)C2CCCCCC12` (stereo unspecified), the TGI in assay [10], in [2], in [6], in [7], in [8] and in assay [9] was above 100 µM throughout.
With `Cc1cn(CC2=NCC(C)(C)N2)c(=O)[nH]c1=O`, the TGI in assay [2], in assay [3], in [5], in assay [6], in assay [7] and in assay [9] was above 100 µM in each case.
Regarding `c1ccc2c(c1)nc(NC1CCCC1)c1[nH]c(C3CCCC3)nc12`, the TGI in [10] was 21.1 µM; in assay [2] it was above 41.7 µM; in [5] it was 17.1 µM; in assay [6] it was 32.7 µM; in assay [7], 30.9 µM; in assay [8] it was 27.9 µM. The molecule also displayed a TGI in assay [9] of 13.3 µM.
As to `COC(=O)C(Cc1ccc(O)cc1)NC(=O)C(CC(=O)OCc1ccccc1)NC(=O)OCc1ccccc1` (stereo unspecified) (Cbz-Asp(OBn)-Tyr-OMe; configuration not given here), the TGI in assay [2] came out at 61.5 µM; in assay [3] it was 40 µM; in assay [5] it was 34.1 µM; in assay [6], 66.1 µM; in assay [7], 29.5 µM; in assay [9], 35 µM.
In the case of `CCOC(=O)CNC(=O)C(C)NC(=O)C(NC(=O)CC(c1ncc[nH]1)c1ncc[nH]1)C(C)CC` (stereo unspecified), the TGI in [10], in assay [1], in [2], in assay [3], in [4] and in assay [6] was above 100 µM each time. Also, the TGI in assay [8] and in [9] was above 100 µM each time.
With `CCCCCCCCCCCCCCCCCCNc1ccn(C2OC(COP(=O)(O)OCC3OC(n4cc(C)c(=O)[nH]c4=O)CC3N=[N+]=[N-])C(O)C2O)c(=O)n1` (stereo unspecified), the TGI in [10] was 33.8 µM; in assay [1] it was 58.6 µM; in assay [2], 44.4 µM; in [3], above 100 µM; in assay [4], 63.2 µM; in [5] it was 57.2 µM. In addition, the TGI in assay [6] was 36 µM; in assay [8], above 100 µM; in assay [9] it was 36.2 µM.
For `NC(=O)C#CC(N)=O`, the TGI in [10] was 46.3 µM and 68.9 µM; in assay [1] it was 10.3 µM and 24.2 µM and 33.8 µM; in assay [2] it was 18.6 µM and 37.5 µM; in assay [5], 28.2 µM and > 100 µM; in [6] it was 238 µM and 207 µM and > 100 µM; in assay [7], 14.6 µM and 22.7 µM and 29.5 µM. For the same molecule, the TGI was 90.2 µM and 66.5 µM and > 100 µM in assay [8]; 152 µM and 132 µM and > 100 µM in [9]. The GI50 is 2.81 µM and 12.5 µM and 18.2 µM in [1]; 3.31 µM and 14.2 µM in [2]; 15 µM and 54.6 µM in assay [5]; 46.4 µM in [6]; 3.62 µM and 10.2 µM and 14.6 µM in assay [7]; 26.5 µM and 22.8 µM and > 100 µM in assay [8]. The GI50 in assay [9] is 43 µM and 39.1 µM and > 100 µM.
Consider `Cc1ccc(N2CCc3c(C)c(C#N)c4nc5ccccc5n4c32)cc1`, for which the TGI in assay [10], in assay [1], in assay [4], in [5], in assay [6] and in assay [7] was above 100 µM each time. Further, the TGI in [8] and in assay [9] was above 100 µM throughout.
Consider `CN(C)CCSC(=Nc1ccccc1)N1CCCCC1`, for which the TGI in assay [10] was 38.1 µM; in assay [1], above 100 µM; in assay [2], 58.7 µM; in [5], 29.8 µM; in [6], 37.3 µM; in [7] it was 34.7 µM. Also, the TGI in [8] is 29.8 µM; in assay [9], above 100 µM.
In the case of `CSC1=C(C#N)C(=O)N(c2ccc(C)cc2)C(=S)C1C#N` (stereo unspecified), the TGI in assay [10], in assay [1], in assay [2], in assay [4], in assay [5] and in [7] was above 100 µM in each case. This molecule showed a TGI in [9] above 100 µM.
For `OC1(c2cc3ccccc3s2)CCCCC1`, the TGI in assay [10] is above 100 µM; in assay [1], above 100 µM; in [2], 67.4 µM; in assay [4], above 100 µM; in assay [5], above 100 µM; in [6] it was above 100 µM. For the same molecule, the TGI in [7], in assay [8] and in [9] was above 100 µM in each case.
On to `Cc1cccc(NC(=O)C(=O)C(C(=O)c2ccccc2F)C2OC(=O)c3ccccc32)c1Cl` (stereo unspecified), for which the TGI in assay [10] was 40.4 µM; in [1] it was above 100 µM; in assay [2], above 100 µM; in [5] it was above 100 µM; in assay [6], 81.8 µM; in assay [9], 36 µM.
Consider `CC(C)c1ccc(/C=C2\CSCC3=C2NC(=S)NC3c2ccc(C(C)C)cc2)cc1` (stereo unspecified), for which the TGI was above 100 µM in [10]; above 100 µM in assay [1]; above 100 µM in [2]; above 100 µM in [3]; 99.5 µM in assay [5]; above 100 µM in assay [6]. The TGI in assay [7], in assay [8] and in assay [9] was above 100 µM in each case.
`CCOc1nc(-c2ccccc2)cc(-c2ccc(N3CCOCC3)cc2)c1C#N`: the TGI in assay [10], in assay [1], in assay [2], in assay [4], in assay [5] and in assay [6] was above 100 µM in each case. Moreover, the TGI in [7], in assay [8] and in assay [9] was above 100 µM in each case.
Consider `COC(=O)/C=C/c1cc(O)c2c(c1)[C@H](C(=O)OC)[C@@H](c1ccc(O)c(O)c1)O2`, for which the TGI in [1] was above 100 µM; in assay [2], above 45.7 µM; in [5] it was 2.18 µM; in assay [6] it was above 100 µM; in [9], above 100 µM.
`CC(NC(=O)C(NC(=O)OC(C)(C)C)C(C)C)C(=O)N1CCCC1C(=O)NCC(=O)NC(C(=O)NCC(=O)OCc1ccccc1)C(C)C` (stereo unspecified) (Boc-VAPGVG-OBn; configuration not given here): the TGI in assay [10], in [1], in assay [3], in assay [4], in [6] and in [8] was above 100 µM in each case. This molecule yielded a TGI in assay [9] above 100 µM.
Consider `C1CCC(OC2CSC2)OC1` (stereo unspecified), for which the TGI in [2], in assay [3], in [4], in assay [5], in assay [6] and in [7] was above 100 µM in each case. In addition, the TGI in assay [8] and in [9] was above 100 µM throughout.
Consider `c1ccc2c(c1)CCc1cc3cc4c(nc3nc1-2)-c1ccccc1CC4`, for which the TGI in assay [10], in [2], in assay [6], in assay [7], in [8] and in assay [9] was above 100 µM in each case.
Take `[N-]=[N+]=CC(=O)OCC1SCCCS1`: the TGI in assay [1], in [2], in assay [4], in assay [5], in assay [6] and in [7] was above 100 µM throughout. Besides, the TGI in assay [8] and in assay [9] was above 100 µM each time.
Consider `COP(=O)(OC)C(Cc1c[nH]c2ccccc12)NC(=O)OCc1ccccc1` (stereo unspecified), for which the TGI in assay [1], in [3], in assay [4], in assay [5], in [6] and in [8] was above 100 µM in each case. This molecule had a TGI in assay [9] above 100 µM.
Take `N#C[S-].[Nd+3].c1ccc(-c2ccccn2)nc1.c1ccc(-c2ccccn2)nc1.c1ccc(-c2ccccn2)nc1`: the GI50 in [10] is 3.78 µM; in [1] it was 5.9 µM; in [5], 1.53 µM; in assay [6], 25.8 µM; in assay [7] it was 3.89 µM; in assay [8], 37.6 µM. Besides, the GI50 in assay [9] is 4.18 µM. Also, the TGI in assay [10] was above 100 µM; in [1], above 100 µM; in assay [5], 4.77 µM; in [6], 98.7 µM; in [7] it was 24.8 µM; in assay [8] it was above 100 µM. For the same molecule, in assay [9], the TGI was above 100 µM.
For the molecule `O=[Se](=O)c1ccccc1.O=[Se](=O)c1ccccc1.[Cu]`, the GI50 is 16.4 µM in [10]; 22.8 µM in assay [1]; 12 µM in [2]; 19 µM in assay [5]; 13.5 µM in assay [6]; 15.3 µM in [7]. In addition, the GI50 was 13.7 µM in assay [8] and 17.1 µM in assay [9]. Further, the TGI came out at 30.6 µM in [10]; 38.9 µM in assay [1]; 65.8 µM in assay [2]; 34.9 µM in assay [5]; 30.1 µM in [6]; 29.2 µM in assay [7]. In addition, the TGI in [8] is 32.7 µM; in [9] it was 30.9 µM.
Take `COc1cccc(/C=N/[N-]C(N)=O)c1[O-].[Ni+2].[OH3+].c1cnc2c(c1)ccc1cccnc12`: the TGI in [10], in assay [1], in assay [2], in assay [5], in assay [6] and in assay [8] was above 100 µM each time. In assay [9], this molecule displayed a TGI above 100 µM.
